Reference: patent publication US5914242A, “Method for diminishing myocardial infarction using protein phosphatase inhibitors” (priority 1997, dated 1999)
“Also recorded” adds a separate entry of the source.

Key:
[1] = tested on: protein phosphatase type 1 (PP1); test: Protein phosphatase inhibition assay, purified catalytic subunit, [32P]-phosphohistone or phosphorylase a substrate; format: biochemical
Description: (§1) FIG. 4: Effect of fostriecin on the activity of protein phosphatase type 1 (PP1) and protein phosphatase type 2A (PP2A). The activity of the purified catalytic subunits of PP1 (Δ,s) or PP2A (O,1) was assayed in the presence of the indicated amount of fostriecin. The inhibition assays employed freshly prepared [^32 P]-phosphohistone (open symbols) or [^32 P]phosphorylase A (filled symbols) as substrate and highly purified catalytic subunits of PP1 or PP2A. Assays were conducted in a total volume of 80 μl, and the indicated amount of fostriecin was added to the assay 10 minutes prior to initiation of the reaction by the addition of substrate. Each point represents the mean ± SE (n>6).
(§2) Determination of protein phosphatase activity: Protein phosphatase activity against phosphohistone was determined by the quantification of liberated [^32 P] from phosphohistone according to previously established methods (see Honkanen et al., J. Biol. Chem. 265:19401-04 (1990); Honkanen et al., Mol. Pharmacol. 40:577-83 (1991); and Critz and Honkanen, Neuroprotocols 6:78-83 (1995)). Assays (80 μl final volume) were conducted in 50 mM Tris-buffer (pH 7.4) containing 0.5 mM DTT, 4 mM EDTA, and phosphoprotein (2 μM PO4). The assay was initiated by the addition of substrate (30 μl) to a 1.5 ml microfuge tube containing 50 μl of dilute homogenate. Assays were conducted at 30° C. for 10 minutes and were stopped by the addition of 100 μl of 1N H2 SO4 containing 1 mM K2 HPO4. [^32 P]Phosphate liberated by the enzyme was then extracted as a phosphomolybdate complex and measured according to the methods of Killilea et al., Arch. Biochem. Biophys. 191:638-46 (1978)). Briefly, free phosphate was extracted by adding 20 μl of ammonium molybdate (7.5% w/v in 1.4 N H2 SO4) and 250 μl of isobutanol:benzine (1:1, v/v) to each tube. The tubes were mixed vigorously for approximately 10 seconds followed by centrifugation at 14,000×g for 2 minutes. Aliquots of the upper phase (100 μl) were removed for counting, and radioactivity was quantified with a scintillation counter.
(§3) For inhibition studies, the indicated amount of fostriecin or okadaic acid was added to the enzyme mixture 10 minutes before the reaction was initiated with the addition of substrate. Controls received solvent alone, and in all experiments the amount of enzyme was diluted to ensure that the samples were below the titration endpoint. The titration endpoint is defined as the concentration of enzyme after which further dilution no longer affects the IC50 of the toxin, and represents a point where the concentration of enzyme used in the assay no longer approaches that of the toxin. This ensures that IC50 represents the potency of the inhibitor alone and is not representative of a combination of potency of the toxin and titration artifacts of the assay system. Preliminary assays were also performed to ensure the dephosphorylation reaction was linear with respect to enzyme concentration and time.
(§4) The catalytic subunit of PP2A was purified to apparent homogeneity according to established methods as described by Pallas et al., Cell 60:167-176 (1990) using G-75 Sephadex in the place of Ultrogel-AcA44 as previously reported in Brautigan et al., J. Biol. Chem. 260:4295-02 and Honkanen et al., Mol. Pharmacol 40:577-83 (1991). PP1 and PP2A both are now also available from several commercial sources.

[2] = tested on: protein phosphatase type 2A (PP2A); test: as above; format: biochemical
Description: as §1, §2, §3, §4

[3] = phosphohistone and phosphorylase-a substrates

CC(O)(/C=C/C1CC=CC(=O)O1)C(CC(O)\C=C/C=C\C=C\CO)OP(=O)(O)O (centres unmarked) [fostriecin]
effect on PP1 at the protective concentration ([1]; 1-10 μM fostriecin): no direct effect; also recorded: minor effect
inhibition of PP1 catalytic subunit [1, 3]: inhibited by fostriecin in a dose-dependent manner
inhibition of PP2A at the protective concentration ([2]; 1-10 μM fostriecin): inhibits the activity of PP2A; also recorded: inhibits PP2A completely
inhibition of PP2A catalytic subunit [2, 3]: inhibited by fostriecin in a dose-dependent manner
concentration inhibiting PP2A relative to PP1 ([2]; purified catalytic subunits): at a lower concentration than PP1
